Measurements reported in patent publication EP3417074B1, “ANALYTICAL METHODS AND ARRAYS FOR USE IN THE SAME” (SenzaGen AB, priority 2016, dated 2017).
Where “and” joins values, the source holds several entries; their conditions need not be identical. Identical values can stand only once. Entries after “also recorded” stand apart in the source; their conditions may differ. Counter-ions that a name gives are not always drawn. Like-named read-outs stand apart in the source and are kept apart here.

Experiments:
human skin = conditions: cited from earlier work; for Human potency [41]: Table 6, test set
MUTZ-3 cells [1] = experiment: GARD binary classification (SVM on GARD prediction signature, 200 transcripts); conditions: for SVM DV: Table 8, average SVM decision value derived from triplicates; for GARD binary prediction: Table 1, sensitizer if median calibrated SVM DV of replicates > 0
MUTZ-3 cells [2] = experiment: Cytotoxicity / viability by flow cytometry (propidium iodide); conditions: Table 1, 24 hours exposure
[3] = cited from earlier work; for binary class (HP*): Table 1, based on [41] where available, HP 1-4=S, 5-6=NS, otherwise according to CLP
MUTZ-3 cells [4] = experiment: GARD random forest model for prediction of CLP categories (52 transcripts, Example A); conditions: for predicted CLP: Suppl. Table 1, separate replicates in the test set; for GARD predicted CLP: Table 6, independent test set, majority voting across replicates; for CLP category predicted by the random forest model: test set, majority votes

SVM DV (MUTZ-3 cells [1]) | Compound | cytotox (MUTZ-3 cells [2]) | binary class ([3]; Table 4) | HP (human skin; Table 4) | further results
-2,38 | CC(O)C(=O)O (stereo not drawn) [lactic acid] | – | – | – | HP (human skin): 6; Human potency (human skin): 6
– | CCCCCCOC(=O)c1ccccc1O [hexyl salicylate] | yes | sens | – | HP (human skin): 4; GARD binary prediction (MUTZ-3 cells [1]): S; binary class (HP*) [3]: S
– | O=[N+]([O-])c1ccc(F)c([N+](=O)[O-])c1 [2,4-Dinitrofluorobenzene] | – | sens | – | GARD binary prediction (MUTZ-3 cells [1]): S; binary class (HP*) [3]: S
1,03 | Oc1cccc(O)c1 [resorcinol] | – | – | 4 | HP (human skin; Table 2, benchmark chemicals): 4; Human potency (human skin; Table 8): 4
2,94 | OCC=Cc1ccccc1 [cinnamyl alcohol] | – | sens | 3 | Human potency (human skin; Table 8): 3
– | CC(C)C1=CC2=CC[C@@H]3[C@](C)(CCC[C@@]3(C)C(=O)O)[C@H]2CC1 [abietic acid] | no | sens | 3 | GARD binary prediction (MUTZ-3 cells [1]): S; binary class (HP*) [3]: S
-1,41 | O=C(O)c1ccccc1O [salicylic acid] | – | – | – | HP (human skin): 6; Human potency (human skin): 6
– | CN(C)CCCN1c2ccccc2Sc2ccc(Cl)cc21 [chlorpromazine] | yes | sens | 3 | GARD binary prediction (MUTZ-3 cells [1]): S; binary class (HP*) [3]: S
– | OCCNCCO [diethanolamine] | no | sens | – | HP (human skin): 5
– | CCCOC(=O)c1cc(O)c(O)c(O)c1 [propyl gallate] | yes | sens | 2 | Human potency [41] (human skin): 2; GARD binary prediction (MUTZ-3 cells [1]): S; binary class (HP*) [3]: S; predicted CLP (MUTZ-3 cells [4]): 1A; GARD predicted CLP (MUTZ-3 cells [4]): 1A
– | O=CCc1ccccc1 [phenyl acetaldehyde] | – | sens | – | –
– | Oc1c(Cl)c(Cl)c(Cl)c(Cl)c1Cl [pentachlorophenol] | no | sens | – | HP (human skin): 5
– | Cc1cccc(O)c1O [3-Methylcatechol] | yes | sens | – | GARD binary prediction (MUTZ-3 cells [1]): S; binary class (HP*) [3]: S
– | O=C(O)c1ccc(O)cc1 [p-hydroxybenzoic acid] | – | non-sens | – | –
– | O=CC=Cc1ccccc1 [cinnamaldehyde] | – | – | – | HP (human skin): 2
– | O=[N+]([O-])c1ccc(CBr)cc1 [4-nitrobenzylbromide] | – | sens | – | –
– | CCOC(=O)c1ccc(N)cc1 [benzocaine] | no | sens | 4 | binary classification according to the established GARD model (MUTZ-3 cells [1]; sensitizing chemicals close to the cut-off defined by benchmark samples): misclassified; binary class (HP*) [3]: S
1,91 | CC=Cc1ccc(O)c(OC)c1 [isoeugenol] | – | sens | 2 | Human potency (human skin; Table 8): 2
– | CC(CC=O)CCCC(C)(C)O (stereo not drawn) [hydroxycitronellal] | – | sens | 4 | –
– | CC(C)=CCCC(C)CCO (stereo not drawn) [citronellol] | no | sens | 5 | GARD binary prediction (MUTZ-3 cells [1]): S
-1,19 | CCCCCCCC(=O)O [octanoic acid] | – | non-sens | – | Human potency (human skin; Table 8): 6; HP (human skin): 6
– | O=C(OCc1ccccc1)c1ccccc1 [benzyl benzoate] | yes | – | – | GARD binary prediction (MUTZ-3 cells [1]): S; predicted CLP (MUTZ-3 cells [4]): 1B; GARD predicted CLP (MUTZ-3 cells [4]): 1B
-1,18 | CC(O)CO (stereo not drawn) [Propylene glycol] | – | – | – | Human potency (human skin; Table 8): 5
– | Clc1nc(Cl)nc(Cl)n1 [cyanuric chloride] | yes | sens | – | binary class (HP*) [3]: S; predicted CLP (MUTZ-3 cells [4]): 1B and no cat (2×); GARD predicted CLP (MUTZ-3 cells [4]): no cat; CLP category predicted by the random forest model (MUTZ-3 cells [4]): no cat; also recorded: no category
– | C=CC(C)(O)CCC=C(C)C (stereo not drawn) [linalool] | no | sens | 4 | Human potency [41] (human skin): 4; binary class (HP*) [3]: S; predicted CLP (MUTZ-3 cells [4]): no cat and 1B (2×); GARD predicted CLP (MUTZ-3 cells [4]): 1B
– | OCc1ccccc1 [benzyl alcohol] | no | non-sens | – | –

SVM DV (MUTZ-3 cells [1]) | Compound | cytotox (MUTZ-3 cells [2]) | binary class ([3]; Table 4) | HP (human skin; Table 4) | further results
– | CCOC(=O)/C=C\C(=O)OCC [diethyl maleate] | – | sens | 2 | human potency category (human skin; Basketter et al. [41]): 2; Human potency [41] (human skin): 2; predicted CLP (MUTZ-3 cells [4]): 1A; GARD predicted CLP (MUTZ-3 cells [4]): 1A; CLP category predicted by the random forest model (MUTZ-3 cells [4]): 1A
– | xylene | – | – | 6 | Human potency [41] (human skin): 6
-1,39 | CCCCCCCC/C=C\CCCCCCCC(=O)OCCOCC(OCCO)C1OCC(OCCO)C1OCCO (stereo not drawn) [Tween 80] | – | non-sens | 6 | Human potency (human skin; Table 8): 6
-2,05 | OCC(O)CO [glycerol] | – | – | 6 | Human potency (human skin; Table 8): 6
1,12 | NCCN [ethylenediamine] | – | – | – | –
– | O=C(Oc1ccccc1)c1ccccc1 [phenyl benzoate] | – | sens | 3 | –
– | CC(C)=CCCC(C)=CC=O [citral] | yes | sens | – | HP (human skin): 3; GARD binary prediction (MUTZ-3 cells [1]): S; binary class (HP*) [3]: S
-1,04 | Nc1ccc(C(=O)O)cc1 [PABA] | – | – | – | Human potency (human skin): 5
1,24 | CCCCCCC(C=O)=Cc1ccccc1 [hexylcinnamic aldehyde] | – | sens | 5 | HP (human skin; Table 2, benchmark chemicals): 5; Human potency (human skin; Table 8): 5; binary class ([3]; Table 2, benchmark chemicals): sens
– | N#CCCC(Br)(C#N)CBr (stereo not drawn) [methyldibromo glutaronitrile] | – | sens | 2 | –
– | O=c1c(-c2ccccc2)c1-c1ccccc1 [diphenylcyclopropenone] | – | sens | 1 | –
– | CN(C)C(=S)SSC(=S)N(C)C [tetramethylthiuram disulfide] | – | – | – | HP (human skin): 3
– | O=C(O)CC(O)(CC(=O)O)C(=O)O [citric acid] | no | – | – | –
– | CCCCCCCCCCCCCC(=O)OC(C)C [isopropyl myristate] | no | sens | 5 | –
– | CCCCCC#CC(=O)OC [methyl heptine carbonate] | yes | sens | 2 | GARD binary prediction (MUTZ-3 cells [1]): S; binary class (HP*) [3]: S
– | Oc1ccc(O)cc1 [hydroquinone] | – | sens | 3 | –
-1,53 | COC(=O)c1ccccc1O [methyl salicylate] | – | non-sens | 5 | Human potency (human skin; Table 8): 5
1,76 | CC(C)=CCC/C(C)=C/CO [geraniol] | – | – | – | –
– | chloroanilin | – | sens | – | –
2,52 | Sc1nc2ccccc2s1 [2-mercaptobenzothiazole] | – | sens | 3 | Human potency (human skin; Table 8): 3
– | CCCCBr [1-bromobutane] | – | non-sens | – | predicted CLP (MUTZ-3 cells [4]): no cat; GARD predicted CLP (MUTZ-3 cells [4]): no cat
– | CCCCCC [hexane] | – | non-sens | 6 | –
-1,37 | CC(C)O [isopropanol] | – | non-sens | 5 | Human potency (human skin; Table 8): 5
– | O=C(O)C(O)C(O)C(=O)O (stereo not drawn) [tartaric acid] | no | – | – | –
– | CCCCCCCCCCCCOC(=O)c1cc(O)c(O)c(O)c1 [lauryl gallate] | – | sens | 2 | –
– | CCCCC/C(=C/c1ccccc1)CO [amylcinnamyl alcohol] | yes | – | – | HP (human skin): 4; GARD binary prediction (MUTZ-3 cells [1]): S

Compound | SVM DV (MUTZ-3 cells [1]) | cytotox (MUTZ-3 cells [2]) | binary class ([3]; Table 4) | HP (human skin; Table 4) | further results
[K+].[K+].[O]=[Cr](=[O])([O-])[O][Cr](=[O])(=[O])[O-] [potassium dichromate] | 8,45 | – | sens | 1 | Human potency (human skin; Table 8): 1
O=Cc1ccccc1 [benzaldehyde] | -2,13 | – | – | – | –
CCOC(=O)c1ccccc1C(=O)OCC [diethyl phthalate] | -2,15 | – | non-sens | – | Human potency [41] (human skin): 6; HP (human skin): 6; Human potency (human skin): 6; predicted CLP (MUTZ-3 cells [4]): no cat; GARD predicted CLP (MUTZ-3 cells [4]): no cat
Nc1ccccc1O [2-aminophenol] | 5,98 | – | – | – | HP (human skin): 2; Human potency (human skin): 2
Nc1ccc(N)cc1 [p-phenylenediamine] | 5,32 | – | sens | – | Human potency (human skin; Table 8): 1; HP (human skin): 1; binary class ([3]; Table 2, benchmark chemicals): sens
CC1(C)S[C@@H]2[C@H](NC(=O)Cc3ccccc3)C(=O)N2[C@H]1C(=O)O [Penicillin G] | 1,06 | – | – | – | Human potency (human skin; Table 8): 3
O=[N+]([O-])c1ccc(Cl)c([N+](=O)[O-])c1 [2,4-dinitrochlorobenzene] | 6,31 | – | sens | – | HP (human skin): 1; Human potency (human skin): 1; binary class ([3]; Table 2, benchmark chemicals): sens
C=CC(=O)OCCO [2-hydroxyethyl acrylate] | 8,87 | – | – | – | –
O=CC=O [glyoxal] | 1,08 | – | – | – | HP (human skin): 2; Human potency (human skin): 2
Clc1ccccc1 [chlorobenzene] | -1,63 | – | – | – | HP (human skin): 6; Human potency (human skin): 6
